Where a SMILES comes first, the peptide text is derived from it. Bridges are numbered along the chain shown (N, C = ends). [ ]: non-standard residue; d: D form. The star is where a group is joined. hPhe(3,5-F2-4-CF3) = N[C@@H](CCc1cc(F)c(C(F)(F)F)c(F)c1)C(=O)O; hPhe(3-Cl-4-CF3) = N[C@@H](CCc1ccc(C(F)(F)F)c(Cl)c1)C(=O)O; NPrPhe(4-CF3) = CCCN[C@@H](Cc1ccc(C(F)(F)F)cc1)C(=O)O; NMeGly(cPent) = CN[C@H](C(=O)O)C1CCCC1; Pro(4,4-F2) = O=C(O)[C@@H]1CC(F)(F)CN1; Hyp = O=C(O)[C@@H]1C[C@@H](O)CN1; NMeD = CN[C@@H](CC(=O)O)C(=O)O; NMeL = CN[C@@H](CC(C)C)C(=O)O; αMeS = C[C@](N)(CO)C(=O)O; Morpholide = C1CN(*)CCO1; Piperidide = C1CCN(*)CC1; Ac5c = NC1(C(=O)O)CCCC1; Aze = O=C(O)[C@@H]1CCN1; Ac4c = NC1(C(=O)O)CCC1; Sar = CNCC(=O)O; tBu = CC(C)(C)*
Legend:
[1] = biological target: GDP-bound NRAS wild-type protein (Homo sapiens, UniProt P01111); assay: Binding to NRAS by surface plasmon resonance (SPR), Single Cycle Kinetics
[2] = biological target: GDP-bound HRAS wild-type protein (Homo sapiens, UniProt P01112); assay: Binding to HRAS by surface plasmon resonance (SPR), Single Cycle Kinetics
[3] = KD ratio, GDP-bound NRAS wild-type vs GDP-bound KRAS wild-type, SPR
[4] = KD ratio, GDP-bound HRAS wild-type vs GDP-bound KRAS wild-type, SPR

Chain of GDP-bound HRAS wild-type protein (P01112 whole entry): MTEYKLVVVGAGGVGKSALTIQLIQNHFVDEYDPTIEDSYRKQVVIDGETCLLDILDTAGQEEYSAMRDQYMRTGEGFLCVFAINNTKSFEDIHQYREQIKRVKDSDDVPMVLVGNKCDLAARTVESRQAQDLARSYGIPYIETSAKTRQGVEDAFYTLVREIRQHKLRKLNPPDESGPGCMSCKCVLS
Chain of GDP-bound NRAS wild-type protein (P01111 whole entry): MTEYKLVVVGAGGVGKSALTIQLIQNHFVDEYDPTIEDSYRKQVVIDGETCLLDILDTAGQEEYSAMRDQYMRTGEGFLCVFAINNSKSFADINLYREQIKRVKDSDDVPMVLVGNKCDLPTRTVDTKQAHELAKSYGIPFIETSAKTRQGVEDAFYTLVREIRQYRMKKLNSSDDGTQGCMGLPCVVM

## CCCN1C(=O)CN(C)C(=O)[C@@H]2CCN2C(=O)[C@H]([C@@H](C)CC)NC(=O)[C@H](CC(C)C)N(C)C(=O)C[C@@H](C(=O)N2CCOCC2)N(C)C(=O)[C@H](C2CCCC2)N(C)C(=O)[C@](C)(COC)NC(=O)[C@@H]2CCCN2C(=O)[C@H](CCc2cc(F)c(C(F)(F)F)c(F)c2)NC(=O)CN(C)C(=O)[C@@H]1Cc1ccc(C(F)(F)F)cc1 [PP0779] ([NMeL]I[Aze][Sar][NPrPhe(4-CF3)][Sar][hPhe(3,5-F2-4-CF3)]P[αMeS](Me)[NMeGly(cPent)][NMeD]-Morpholide; lactam N-11)
[1]; SPR
  NRAS/KRAS (ratio of KD value with respect to GDP-bound NRAS wild-type protein to KD value with respect to KRAS): B (a compound having 3 or more and less than 10 is denoted as B)
[2]; SPR
  HRAS/KRAS (ratio of KD value with respect to GDP-bound HRAS wild-type protein to KD value with respect to KRAS): B (a compound having 3 or more and less than 10 is denoted as B)

## CCCN1C(=O)CN(C)C(=O)CNC(=O)[C@H]([C@@H](C)CC)NC(=O)[C@H](CC(C)C)N(C)C(=O)C[C@@H](C(=O)N2CCOCC2)NC(=O)[C@H](C2CCCC2)N(C)C(=O)C2(CCCC2)NC(=O)[C@@H]2C[C@@H](OCC)CN2C(=O)[C@H](CCc2ccc(C(F)(F)F)c(Cl)c2)NC(=O)CN(C)C(=O)[C@@H]1Cc1ccc(C(F)(F)F)cc1 [PP0329] ([NMeL]IG[Sar][NPrPhe(4-CF3)][Sar][hPhe(3-Cl-4-CF3)][Hyp](Et)[Ac5c][NMeGly(cPent)]D-Morpholide; lactam N-11)
[1]; SPR
  NRAS/KRAS (ratio of KD for GDP-bound NRAS wild-type to KD for KRAS): B (a compound having 3 or more and less than 10 is denoted as B)
[2]; SPR
  HRAS/KRAS (ratio of KD for GDP-bound HRAS wild-type to KD for KRAS): C (A compound having a KD ratio of 0.1 or more and less than 3 is denoted as C)

## CCO[C@@H]1C[C@H]2C(=O)NC3(CC(C)(C)C3)C(=O)N(C)[C@@H](C3CCCC3)C(=O)N(C)[C@H](C(=O)N(C)CC)CC(=O)N(C)[C@H]3CCC/C=C/c4ccc(cc4)C[C@@H](C(=O)N(C)CC(=O)N[C@@H](CCc4ccc(Cl)c(Cl)c4)C(=O)N2C1)N1CC/C=C\C[C@@H](C1=O)N(C)C(=O)CN(C)C(=O)[C@H]([C@@H](C)CC)NC3=O [PP2577]
[1]; class symbols
  NRAS/KRAS (ratio of KD value with respect to GDP-bound NRAS wild-type protein to KD value with respect to KRAS): A (a compound having 10 or more and less than 20 is denoted as A)
[2]; class symbols
  HRAS/KRAS (ratio of KD value with respect to GDP-bound HRAS wild-type protein to KD value with respect to KRAS): A (a compound having 10 or more and less than 20 is denoted as A)

## CC[C@H](C)[C@@H]1NC(=O)[C@H](CC(C)C)NC(=O)C[C@@H](C(=O)N2CCOCC2)N(C)C(=O)[C@H](C2CCCC2)N(C)C(=O)C2(CCCC2)NC(=O)[C@@H]2CCCN2C(=O)[C@H](CCc2cc(F)c(C(F)(F)F)c(F)c2)NC(=O)CN(C)C(=O)[C@H](Cc2ccc(C(F)(F)F)cc2)N2CCCCC[C@@H](C2=O)N(C)C(=O)CN(C)C1=O [PP0516]
[1]; SPR
  NRAS/KRAS (ratio of KD value with respect to GDP-bound NRAS wild-type protein to KD value with respect to KRAS): B (a compound having 3 or more and less than 10 is denoted as B)
[2]; SPR
  HRAS/KRAS (ratio of KD value with respect to GDP-bound HRAS wild-type protein to KD value with respect to KRAS): B (a compound having 3 or more and less than 10 is denoted as B)

## CCO[C@@H]1C[C@H]2C(=O)NC3(CCC3)C(=O)N(C)[C@@H](C3CCCC3)C(=O)N(C)[C@H](C(=O)N(C)C)CC(=O)N(C)[C@@H](CC)C(=O)N[C@@H]([C@@H](C)CC)C(=O)N3CC[C@H]3C(=O)N(C)[C@H]3CC(C)=C(C)CN(C3=O)[C@@H](Cc3ccc(C(F)(F)F)cc3)C(=O)N(C)CC(=O)N[C@@H](CCc3cc(F)c(C(F)(F)F)c(F)c3)C(=O)N2C1 [PP1049]
[1]; [3]
  NRAS/KRAS (ratio of KD value with respect to NRAS to KD value with respect to KRAS): C (A compound having a KD ratio of 0.1 or more and less than 3 is denoted as C)
[2]; [4]
  HRAS/KRAS (ratio of KD value with respect to HRAS to KD value with respect to KRAS): C (A compound having a KD ratio of 0.1 or more and less than 3 is denoted as C)

## CCOC[C@H]1C(=O)N[C@@H]([C@@H](C)CC)C(=O)N(C2CC2)CC(=O)N(C)[C@H]2C/C=C\CCN(C2=O)[C@@H](Cc2ccc(C)cc2)C(=O)N(C)CC(=O)N[C@@H](CCc2cc(F)c(C(F)(F)F)c(F)c2)C(=O)N2C[C@H](OCC)C[C@H]2C(=O)NC2(CC(C)(C)C2)C(=O)N(C)[C@@H](CC(C)(C)C)C(=O)N(C)[C@H](C(=O)N(C)C)CC(=O)N1C [PP2720]
[1]; class symbols
  NRAS/KRAS (ratio of KD value with respect to GDP-bound NRAS wild-type protein to KD value with respect to KRAS): A (a compound having 10 or more and less than 20 is denoted as A)
[2]; class symbols
  HRAS/KRAS (ratio of KD value with respect to GDP-bound HRAS wild-type protein to KD value with respect to KRAS): A (a compound having 10 or more and less than 20 is denoted as A)

## CCCN1C(=O)CN(C)C(=O)CN(C)C(=O)[C@H]([C@@H](C)CC)NC(=O)[C@H](CC(C)C)N(C)C(=O)C[C@@H](C(=O)N2CCOCC2)N(C)C(=O)[C@H](C2CCCC2)N(C)C(=O)C2(CCC2)NC(=O)[C@@H]2CC(F)(F)CN2C(=O)[C@H](CCc2ccc(C(F)(F)F)c(Cl)c2)NC(=O)CN(C)C(=O)[C@@H]1Cc1ccc(C(F)(F)F)cc1 [PP0207] ([NMeL]I[Sar][Sar][NPrPhe(4-CF3)][Sar][hPhe(3-Cl-4-CF3)][Pro(4,4-F2)][Ac4c][NMeGly(cPent)][NMeD]-Morpholide; lactam N-11)
[1]; SPR
  NRAS/KRAS (ratio of KD for GDP-bound NRAS wild-type to KD for KRAS): B (a compound having 3 or more and less than 10 is denoted as B)
[2]; SPR
  HRAS/KRAS (ratio of KD for GDP-bound HRAS wild-type to KD for KRAS): C (A compound having a KD ratio of 0.1 or more and less than 3 is denoted as C)

## CCCN1C(=O)CN(C)C(=O)CN(C)C(=O)[C@H]([C@@H](C)CC)NC(=O)[C@H](CC(C)C)N(C)C(=O)C[C@@H](C(=O)N2CCCCC2)N(C)C(=O)[C@H](C2CCCC2)N(C)C(=O)C2(CCCC2)NC(=O)[C@@H]2CCCN2C(=O)[C@H](CCc2ccc(C(F)(F)F)c(Cl)c2)NC(=O)CN(C)C(=O)[C@@H]1Cc1ccc(C(F)(F)F)cc1 [PP0171] ([NMeL]I[Sar][Sar][NPrPhe(4-CF3)][Sar][hPhe(3-Cl-4-CF3)]P[Ac5c][NMeGly(cPent)][NMeD]-Piperidide; lactam N-11)
[1]; SPR
  NRAS/KRAS (ratio of KD for GDP-bound NRAS wild-type to KD for KRAS): B (a compound having 3 or more and less than 10 is denoted as B)
[2]; SPR
  HRAS/KRAS (ratio of KD for GDP-bound HRAS wild-type to KD for KRAS): C (A compound having a KD ratio of 0.1 or more and less than 3 is denoted as C)

## CCCN1C(=O)CN(C)C(=O)CN(C)C(=O)[C@H]([C@@H](C)CC)NC(=O)[C@H](CC(C)C)N(C)C(=O)C[C@@H](C(=O)N(C)C)N(C)C(=O)[C@H](C2CCCC2)N(C)C(=O)[C@](C)(COC(C)(C)C)NC(=O)[C@@H]2CCCN2C(=O)[C@H](CCc2cc(F)c(C(F)(F)F)c(F)c2)NC(=O)CN(C)C(=O)[C@@H]1Cc1ccc(C(F)(F)F)cc1 [PP0743] ([NMeL]I[Sar][Sar][NPrPhe(4-CF3)][Sar][hPhe(3,5-F2-4-CF3)]P[αMeS](tBu)[NMeGly(cPent)][NMeD]-NMe2; lactam N-11)
[1]; SPR
  NRAS/KRAS (ratio of KD value with respect to GDP-bound NRAS wild-type protein to KD value with respect to KRAS): B (a compound having 3 or more and less than 10 is denoted as B)
[2]; SPR
  HRAS/KRAS (ratio of KD value with respect to GDP-bound HRAS wild-type protein to KD value with respect to KRAS): C (A compound having a KD ratio of 0.1 or more and less than 3 is denoted as C)

## CCC[C@H]1C(=O)N[C@@H]([C@@H](C)CC)C(=O)N(C)CC(=O)N(C)[C@H]2C/C=C\CCN(C2=O)[C@@H](Cc2ccc(C)cc2)C(=O)N(C)CC(=O)N[C@@H](CCc2ccc(C(F)(F)F)c(OC)c2)C(=O)N2C[C@@H](C)C[C@H]2C(=O)NC2(CCC2)C(=O)N(C)[C@@H](C2CCCC2)C(=O)N(C)[C@H](C(=O)N(C)C)CC(=O)N1C [PP1857]
[1]; [3]
  NRAS/KRAS (ratio of KD value for NRAS to KD value for KRAS): A (a compound having 10 or more and less than 20 is denoted as A)
[2]; [4]
  HRAS/KRAS (ratio of KD value for HRAS to KD value for KRAS): B (a compound having 3 or more and less than 10 is denoted as B)

## CCCOC[C@H]1C(=O)N[C@@H]([C@@H](C)CC)C(=O)N(C)CC(=O)N(C)[C@H]2C/C=C\CCN(C2=O)[C@@H](Cc2ccc(C(F)(F)F)cc2)C(=O)N(C)CC(=O)N[C@@H](CCc2ccc(C(F)(F)F)c(OC)c2)C(=O)N2C[C@@H](C)C[C@H]2C(=O)NC2(CCC2)C(=O)N(C)[C@@H](C2CCCC2)C(=O)N(C)[C@H](C(=O)N(C)CCC)CC(=O)N1C [PP2028]
[1]; [3]
  NRAS/KRAS (ratio of KD value for NRAS to KD value for KRAS): A (a compound having 10 or more and less than 20 is denoted as A)
[2]; [4]
  HRAS/KRAS (ratio of KD value for HRAS to KD value for KRAS): B (a compound having 3 or more and less than 10 is denoted as B)

## CCCN1C(=O)CN(C)C(=O)CN(C)C(=O)[C@H]([C@@H](C)CC)NC(=O)[C@H](CC(C)C)N(C)C(=O)C[C@@H](C(=O)N(C)C)N(C)C(=O)[C@H](C2CCCC2)N(C)C(=O)[C@](C)(COC)NC(=O)[C@@H]2CCCN2C(=O)[C@H](CCc2cc(F)c(C(F)(F)F)c(F)c2)NC(=O)CN(C)C(=O)[C@@H]1Cc1ccc(C(F)(F)F)cc1 [PP0741] ([NMeL]I[Sar][Sar][NPrPhe(4-CF3)][Sar][hPhe(3,5-F2-4-CF3)]P[αMeS](Me)[NMeGly(cPent)][NMeD]-NMe2; lactam N-11)
[1]; SPR
  NRAS/KRAS (ratio of KD value with respect to GDP-bound NRAS wild-type protein to KD value with respect to KRAS): B (a compound having 3 or more and less than 10 is denoted as B)
[2]; SPR
  HRAS/KRAS (ratio of KD value with respect to GDP-bound HRAS wild-type protein to KD value with respect to KRAS): B (a compound having 3 or more and less than 10 is denoted as B)

## CCO[C@@H]1C[C@H]2C(=O)NC3(CCC3)C(=O)N(C)[C@@H](C3CCCC3)C(=O)N(C)[C@H](C(=O)N(C)CCOC)CC(=O)N(C)[C@@H](CC)C(=O)N[C@@H]([C@@H](C)CC)C(=O)N(C)CC(=O)N(C)[C@H]3C/C=C\CCN(C3=O)[C@@H](Cc3ccc(C(F)(F)F)cc3)C(=O)N(C)CC(=O)N[C@@H](CCc3ccc4sccc4c3)C(=O)N2C1 [PP1322]
[1]; SPR, KD ratio class
  NRAS/KRAS (ratio of KD value for GDP-bound NRAS wild-type protein to KD value for KRAS): A (a compound having 10 or more and less than 20 is denoted as A)
[2]; SPR, KD ratio class
  HRAS/KRAS (ratio of KD value for GDP-bound HRAS wild-type protein to KD value for KRAS): A (a compound having 10 or more and less than 20 is denoted as A)
